From ChEMBL document CHEMBL1201862, “PubChem BioAssay data set” (2004)
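Where inhibition never reached the appropriate level, the endpoint shown equals the highest concentration tested. Otherwise, values were interpolated linearly from a five-concentration, 48-hour dose response in 96-well plates. GI50 marks 50% less growth.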 Calls of active or inactive are those of the source. No stated cut-off is given here; in the data, active = GI50 up to about 1.1 µM and inactive = higher.

Tests used:
Assay in all cases: DTP human tumour cell line panel, 48 h
OVCAR-4 = test system: OVCAR-4
UACC-257 = test system: UACC-257
LOX IMVI = test system: LOX IMVI
HCT-15 = test system: HCT-15
CCRF-CEM = test system: CCRF-CEM
LXFL 529 = test system: LXFL 529
NCI-H226 = test system: NCI-H226
SK-MEL-5 = test system: SK-MEL-5
UO-31 = test system: UO-31
M14 = test system: M14
OVCAR-3 = test system: OVCAR-3
HCT-116 = test system: HCT-116
HOP-62 = test system: HOP-62
U-251 = test system: U-251
CAKI-1 = test system: CAKI-1
UACC-62 = test system: UACC-62

| SMILES | GI50 (OVCAR-4) | GI50 (UACC-257) | GI50 (LOX IMVI) | GI50 (HCT-15) | GI50 (CCRF-CEM) | GI50 (LXFL 529) | GI50 (NCI-H226) | GI50 (SK-MEL-5) | GI50 (UO-31) | GI50 (M14) | GI50 (OVCAR-3) | GI50 (HCT-116) | GI50 (HOP-62) | GI50 (U-251) | GI50 (CAKI-1) | GI50 (UACC-62) |
| --- | --- | --- | --- | --- | --- | --- | --- | --- | --- | --- | --- | --- | --- | --- | --- | --- |
| COc1cc(/C=C(\C)c2ccc3c(c2)OCO3)cc(OC)c1OC | 32.5 µM (inactive) | 29.2 µM (inactive) | 16 µM (inactive) | 26.1 µM | 19.8 µM (inactive) | 14.7 µM (inactive) | 33.7 µM (inactive) | 11.7 µM (inactive) | 27.3 µM (inactive) | 36.7 µM (inactive) | 34.8 µM (inactive) | 31.8 µM (inactive) | 70 µM (inactive) | 50.4 µM (inactive) | – | – |
| O=C(Cc1ccccc1)NS(=O)(=O)c1ccccc1 | > 100 µM (inactive) | > 100 µM (inactive) | > 100 µM (inactive) | – | > 100 µM (inactive) | > 100 µM (inactive) | > 100 µM (inactive) | – | > 100 µM (inactive) | > 100 µM (inactive) | > 100 µM (inactive) | > 100 µM (inactive) | > 100 µM (inactive) | > 100 µM (inactive) | > 100 µM (inactive) | > 100 µM (inactive) |
| CCc1cccc(C)c1NC(=O)CC1C(=O)Nc2ccccc2S1(=O)=O (configuration not stated) | 14.9 µM (inactive) | 18.9 µM (inactive) | 13.2 µM (inactive) | 12 µM | 13.7 µM (inactive) | 16.7 µM (inactive) | 33 µM (inactive) | 13.7 µM (inactive) | 13.5 µM (inactive) | 18.9 µM (inactive) | 15.2 µM (inactive) | 15.8 µM (inactive) | – | 16.9 µM (inactive) | 14.2 µM (inactive) | 15.8 µM (inactive) |
| COc1ccc(CCc2ccccc2CC(=O)O)cc1 | > 100 µM (inactive) | > 100 µM (inactive) | > 100 µM (inactive) | > 100 µM | > 100 µM (inactive) | > 100 µM (inactive) | > 100 µM (inactive) | > 100 µM (inactive) | > 100 µM (inactive) | > 100 µM (inactive) | > 100 µM (inactive) | > 100 µM (inactive) | – | > 100 µM (inactive) | > 100 µM (inactive) | > 100 µM (inactive) |
| CC1SC2=NC3=C(c4ccccc4C3=O)C(c3ccc(F)cc3)N2C1=O (configuration not stated) | 42.5 µM (inactive) | > 100 µM (inactive) | – | > 100 µM | > 100 µM (inactive) | 86.3 µM (inactive) | 38.5 µM (inactive) | > 100 µM (inactive) | 38.9 µM (inactive) | > 100 µM (inactive) | > 100 µM (inactive) | > 100 µM (inactive) | > 100 µM (inactive) | > 100 µM (inactive) | > 100 µM (inactive) | 64.1 µM (inactive) |
| COC(=O)[C@@]12OC[C@]34C([C@@H](O)C1O)[C@@]1(C)CC(=O)C(O)=C(C)C1C[C@H]3OC(=O)[C@H](OC(=O)/C=C(/c1ccccc1)C(F)(F)F)[C@H]42 (some centres not stated) | 6.31 µM (inactive) | 7.03 µM (inactive) | – | 7.93 µM | 3.88 µM (inactive) | 2.65 µM (inactive) | 2.02 µM (inactive) | 3.28 µM (inactive) | 6.82 µM (inactive) | 3.54 µM (inactive) | – | 2.43 µM (inactive) | 5.96 µM (inactive) | 4.41 µM (inactive) | 7.59 µM (inactive) | 2.05 µM (inactive) |
| Nc1ccccc1[S+]([O-])c1ccccc1 (configuration not stated) | > 100 µM (inactive) | – | > 100 µM (inactive) | > 100 µM | > 100 µM (inactive) | > 100 µM (inactive) | > 100 µM (inactive) | > 100 µM (inactive) | > 100 µM (inactive) | > 100 µM (inactive) | > 100 µM (inactive) | > 100 µM (inactive) | > 100 µM (inactive) | > 100 µM (inactive) | – | > 100 µM (inactive) |
| CC(=O)N(C(C)=O)c1c(N)n(C)c(=O)[nH]c1=O | > 100 µM (inactive) | > 100 µM (inactive) | > 100 µM (inactive) | > 100 µM | > 100 µM (inactive) | > 100 µM (inactive) | > 100 µM (inactive) | > 100 µM (inactive) | > 100 µM (inactive) | > 100 µM (inactive) | > 100 µM (inactive) | > 100 µM (inactive) | – | – | > 100 µM (inactive) | > 100 µM (inactive) |
| CC(=O)CC(=O)NC=O | > 100 µM (inactive) | > 100 µM (inactive) | – | > 100 µM | > 100 µM (inactive) | > 100 µM (inactive) | > 100 µM (inactive) | > 100 µM (inactive) | > 100 µM (inactive) | > 100 µM (inactive) | > 100 µM (inactive) | > 100 µM (inactive) | > 100 µM (inactive) | > 100 µM (inactive) | > 100 µM (inactive) | > 100 µM (inactive) |
| CCCCCCCCCCCCCP(=O)(NCC(N)=O)OCC (configuration not stated) | 16.7 µM (inactive) | 18.9 µM (inactive) | > 10 µM (inactive) | 17.8 µM | 22.6 µM (inactive) | 16.8 µM (inactive) | 17.5 µM (inactive) | 18.5 µM (inactive) | 13.6 µM (inactive) | 16.9 µM (inactive) | 15.3 µM (inactive) | 14.8 µM (inactive) | 17.3 µM (inactive) | 17.3 µM (inactive) | – | 16.3 µM (inactive) |
| CCC(C)CC(C)CC(C)/C=C(\C)C1=C(C)CC(C)(O)O1 (configuration not stated) | – | 79.1 µM (inactive) | > 100 µM (inactive) | > 100 µM | 52.6 µM (inactive) | 53 µM (inactive) | 76.9 µM (inactive) | 92.5 µM (inactive) | 26.3 µM (inactive) | > 100 µM (inactive) | – | 41 µM (inactive) | – | 61.8 µM (inactive) | 79.8 µM (inactive) | > 100 µM (inactive) |
| CCOC(=O)C(C)(C)Oc1ccc2c(-c3ccc(Cl)cc3)cc(=O)oc2c1 | > 100 µM (inactive) | > 100 µM (inactive) | > 100 µM (inactive) | > 100 µM | > 100 µM (inactive) | > 100 µM (inactive) | > 100 µM (inactive) | 74.8 µM (inactive) | > 100 µM (inactive) | > 100 µM (inactive) | > 100 µM (inactive) | > 100 µM (inactive) | > 100 µM (inactive) | > 100 µM (inactive) | – | > 100 µM (inactive) |
| C/C(=C\c1ccccc1)C(=O)c1c(C)cc(C)cc1C | > 100 µM (inactive) | > 100 µM (inactive) | – | > 100 µM | > 100 µM (inactive) | > 100 µM (inactive) | > 100 µM (inactive) | > 100 µM (inactive) | > 100 µM (inactive) | > 100 µM (inactive) | > 100 µM (inactive) | > 100 µM (inactive) | > 100 µM (inactive) | > 100 µM (inactive) | > 100 µM (inactive) | > 100 µM (inactive) |
| COC1C2c3cc4c(cc3CC(C#N)(c3ccccc32)N1C(=O)c1ccccc1)OCO4 (configuration not stated) | – | > 100 µM (inactive) | > 100 µM (inactive) | > 100 µM | > 100 µM (inactive) | > 100 µM (inactive) | 93.3 µM (inactive) | 33 µM (inactive) | 78.3 µM (inactive) | > 100 µM (inactive) | > 100 µM (inactive) | > 100 µM (inactive) | 48 µM (inactive) | > 100 µM (inactive) | – | 4.94 µM (inactive) |
